Values after ≈ are worked out from the molar mass of the structure shown.
Legend:
[1] = system: ESBL-Ec biofilm; experiment: Biofilm metabolic activity by XTT-reduction assay; type: cell-based, Escherichia coli
Description: (§1) For all bacterial strains considered in the study, biofilm was performed on a 96‐well plate inoculated with 200 µL of a bacterial suspension 1 × 10^6 CFU/mL and incubated 24 h at 37°C. After incubation for 4 h at 37°C, the medium was aspirated, non‐adherent cells were removed, washed with PBS and added with 200 µL of fresh medium. […] Similarly, to perform fungal biofilm, the different Candida species were grown for 24 h at 28°C on a multi‐wells plate, washed twice with sterile PBS, and then resuspended at 37°C in RPMI 1640 plus 10% FBS at 2.5 × 10^7 cells. After incubation for 3 h at 37°C in six‐well polystyrene plates, the medium was aspirated, non‐adherent cells were removed and washed with PBS.
(§2) The biofilm metabolic activity was evaluated by XTT assay, that highpoints the activity through the reduction of the tetrazolium salt to formazan. After the removal of supernatant and washing with PBS, a solution of XTT‐menadione solution were added to wells. The XTT‐menadione was prepared dissolving XTT powder in prewarmed PBS (37°C) at 0.5 g/L. The solution was sterilized through a 0.22 μm pore size filter. Before each assay, the XTT solution was thawed and supplemented with menadione, a 10 mM stock dissolved in acetone to a final concentration 1 μM. Plates were incubated for 3 h at 37°C in the dark and then the absorbance was measured at 492 nm using the microplate reader, Tecan Sunrise.

[2] = system: E. coli biofilm; experiment: Biofilm metabolic activity by XTT-reduction assay; type: cell-based, Escherichia coli
Description: as §1, §2

[3] = system: S. aureus biofilm; experiment: Biofilm metabolic activity by XTT-reduction assay; type: cell-based, Staphylococcus aureus
Description: as §1, §2

[4] = system: MRSA biofilm; experiment: Biofilm metabolic activity by XTT-reduction assay; type: cell-based, Staphylococcus aureus
Description: as §1, §2

[5] = system: MRSA biofilm; experiment: Biofilm biomass by crystal violet (CV) assay; type: cell-based, Staphylococcus aureus
Description: as §1
(§3) To quantify bacterial and Candida biofilm biomass, CV, a dye able to color the biofilm matrix, was used. Firstly, after the removal of supernatant and washing with PBS, biofilm was fixed adding 100 µL of 99% methanol for 15 min. Then, methanol was rinsed off and the plates were air‐dried. Subsequently, 100 µL of a 0.1% of CV solution were added to wells and, after 20 min of contact, the plates were washed under running tap water. To dissolve the bounded CV, 150 µL of 33% of glacial acetic acid were added to wells. The absorbance was measured at 590 nm using an automatic microplate reader, Tecan Sunrise (Tecan Group Ltd., Männedorf, Switzerland).

[6] = system: ESBL-Ec biofilm; experiment: Biofilm biomass by crystal violet (CV) assay; type: cell-based, Escherichia coli
Description: as §1, §3

[7] = system: E. coli biofilm; experiment: Biofilm biomass by crystal violet (CV) assay; type: cell-based, Escherichia coli
Description: as §1, §3

[8] = system: C. albicans biofilm; experiment: Biofilm metabolic activity by XTT-reduction assay; type: cell-based, Candida albicans
Description: as §1, §2

[9] = system: C. krusei biofilm; experiment: Biofilm biomass by crystal violet (CV) assay; type: cell-based, Candida krusei
Description: as §1, §3

[10] = system: C. glabrata biofilm; experiment: Biofilm metabolic activity by XTT-reduction assay; type: cell-based, Candida glabrata
Description: as §1, §2

[11] = system: C. glabrata biofilm; experiment: Biofilm biomass by crystal violet (CV) assay; type: cell-based, Candida glabrata
Description: as §1, §3

[12] = system: C. albicans biofilm; experiment: Biofilm biomass by crystal violet (CV) assay; type: cell-based, Candida albicans
Description: as §1, §3

[13] = system: C. krusei biofilm; experiment: Biofilm metabolic activity by XTT-reduction assay; type: cell-based, Candida krusei
Description: as §1, §2

[14] = system: C. tropicalis biofilm; experiment: Biofilm metabolic activity by XTT-reduction assay; type: cell-based, Candida tropicalis; conditions: biofilm in formation (3 h), substance alone at MIC
Description: as §1, §2

[15] = system: C. albicans AIDS 68; experiment: MIC and MFC by microbroth dilution; type: cell-based; conditions: Candida albicans, AIDS68, C. albicans
Description: (§4) No substance was added, in one well, for growth control. A bacterial suspension of 1 × 10^8 CFU/mL was inoculated into all wells of the plate and incubated for 24 h at 37°C. […] The dilutions ranged from 4 to 2000 µg/mL for the substances. The inoculum size was about 2.5×10^3 cells/mL. The plates were incubated at 28°C for 24–48 h. The MIC was determined as the lowest substances' concentration where no visible bacterial or fungal growth was observed. […] Each antimicrobial assay was performed in triplicate.

[16] = system: C. tropicalis 45,615; experiment: MIC and MFC by microbroth dilution; type: cell-based; conditions: Candida tropicalis, C. tropicalis
Description: as §4

[17] = system: C. glabrata DSY562; experiment: MIC and MFC by microbroth dilution; type: cell-based, Candida glabrata; conditions: Nakaseomyces glabratus, DSY562, C. glabrata
Description: as §4

[18] = system: S. aureus biofilm; experiment: Biofilm biomass by crystal violet (CV) assay; type: cell-based, Staphylococcus aureus
Description: as §1, §3

[19] = system: Extended Spectrum-Beta-Lactamase producing E. coli (ESBL-Ec); experiment: MIC and MBC by microbroth dilution; type: cell-based; conditions: Escherichia coli, ESBL-Ec
Description: as §4

[20] = system: Staphylococcus aureus ATCC 6538; experiment: MIC and MBC by microbroth dilution; type: cell-based
Description: as §4

[21] = system: methicillin resistant S. aureus (MRSA); experiment: MIC and MBC by microbroth dilution; type: cell-based; conditions: Staphylococcus aureus
Description: as §4

[22] = system: Escherichia coli MG1655 (ATCC 700926); experiment: MIC and MBC by microbroth dilution; type: cell-based
Description: as §4

[23] = system: C. krusei 44956; experiment: MIC and MFC by microbroth dilution; type: cell-based, Candida krusei; conditions: Pichia kudriavzevii, 44956, C. krusei
Description: as §4

[24] = system: C. tropicalis biofilm; experiment: Biofilm biomass by crystal violet (CV) assay; type: cell-based, Candida tropicalis; conditions: substance alone at MIC
Description: as §1, §3

[25] = biofilm in formation, sub-MIC concentrations alone or in combination (Table 5)
[26] = preformed biofilm, sub-MIC concentrations alone or in combination (Table 5)
[27] = planktonic, 24-48 h, read-out: MIC
[28] = biofilm in formation (3 h), substance alone at MIC
[29] = biofilm in formation, sub-MIC concentrations alone or in combination (Table 5), listed as T
[30] = preformed biofilm (24 h), substance alone at MIC
[31] = biofilm in formation (4 h), substance alone at MIC
[32] = planktonic, 24 h, read-out: MIC
[33] = biofilm in formation (3 h), substance alone at MIC, listed as thymol

In the case of `CNC(C)C1CCC(N)C(OC2C(N)CC(N)C(OC3OCC(C)(O)C(NC)C3O)C2O)O1` (stereo not shown) [GM, gentamicin, reference compound], the “Percentage of metabolic activity reduction” value [1, 25] was 50%, the “Percentage of metabolic activity reduction” value [2, 25] was 35.9% and the “Percentage of metabolic activity reduction” value [2, 26] was 48.3%. The “Percentage of metabolic activity reduction” value [3, 26] was 15.2%, the “Percentage of metabolic activity reduction” value [4, 25] was 22.3% and the “Percentage of metabolic activity reduction” value [4, 26] was 16%. The “Percentage of biomass reduction” value [5, 25] was 57.6%, the “Percentage of biomass reduction” value [5, 26] was 33.6% and the “Percentage of biomass reduction” value [6, 25] was 66.7%. For the same molecule, the “Percentage of biomass reduction” value [6, 26] was 48.9%, the “Percentage of biomass reduction” value [7, 25] was 48% and the “Percentage of biomass reduction” value [7, 26] was 59.8%.
With `OC(Cn1cncn1)(Cn1cncn1)c1ccc(F)cc1F` [FLC, fluconazole, reference compound] the “Percentage of metabolic activity reduction” value [8, 25] was 25.1%, the “Percentage of metabolic activity reduction” value [8, 26] was 6.9% and the “Percentage of biomass reduction” value [9, 26] was 14%. For the same molecule, the “Percentage of metabolic activity reduction” value [10, 25] was 27.1%, the “Percentage of metabolic activity reduction” value [10, 26] was 5.3% and the “Percentage of biomass reduction” value [11, 25] was 20.5%. The “Percentage of biomass reduction” value [12, 25] was 30.6% and the “Percentage of metabolic activity reduction” value [13, 26] was 14%.
`Cc1ccc(C(C)C)c(O)c1` [Thymol, 2‐isopropyl‐5‐methylphenol] was tested, and the “Percentage of metabolic activity reduction” value [14] was 53.9%, the MIC [15, 27] was no less than 2000 µg/mL and the MFC ([15]; read-out: MFC) was no less than 2000 µg/mL. The MIC [16, 27] was no less than 2000 µg/mL, the MFC ([16]; read-out: MFC) was no less than 2000 µg/mL and the “Percentage of metabolic activity reduction” value [8, 28] was 85.1%. The “Percentage of metabolic activity reduction” value [8, 25] was “about 22%”, the “Percentage of metabolic activity reduction” value [8, 29] was 24.0% and the “Percentage of metabolic activity reduction” value [8, 30] was 84.1%. The “Percentage of metabolic activity reduction” value ([8]; preformed biofilm (24 h), substance alone at MIC, listed as thymol) was 80%, the “Percentage of metabolic activity reduction” value [8, 26] was 9.0% and the “Percentage of biomass reduction” value [9, 28] was “no effect”. For the same molecule, the “Percentage of biomass reduction” value [9, 30] was 18.5%, the “Percentage of metabolic activity reduction” value [1, 31] was 77.9% and the “Percentage of metabolic activity reduction” value [1, 25] was roughly 50%. For the same molecule, the “Percentage of metabolic activity reduction” value [1, 29] was 52%, the “Percentage of metabolic activity reduction” value [1, 30] was 74% and the “Percentage of metabolic activity reduction” value [2, 31] was 84.8%. For the same molecule, the “Percentage of metabolic activity reduction” value [2, 25] was roughly 50%, the “Percentage of metabolic activity reduction” value [2, 29] was 51.3% and the “Percentage of metabolic activity reduction” value [2, 30] was 74%. For the same molecule, the “Percentage of metabolic activity reduction” value [2, 26] was 22.4%, the “Percentage of metabolic activity reduction” value [3, 31] was 90% and the “Percentage of metabolic activity reduction” value [3, 29] was 12%. For the same molecule, the “Percentage of metabolic activity reduction” value [3, 30] was 90%, the “Percentage of metabolic activity reduction” value [4, 31] was 96.3% and the “Percentage of metabolic activity reduction” value [4, 30] was 97.5%. The “Percentage of metabolic activity reduction” value [4, 26] was 17.2%, the “Percentage of metabolic activity reduction” value [10, 28] was 90% and the “Percentage of metabolic activity reduction” value [10, 30] was 9.6%. The “Percentage of metabolic activity reduction” value [10, 26] was 11.4%, the MIC [17, 27] was no less than 2000 µg/mL and the MFC ([17]; read-out: MFC) was no less than 2000 µg/mL. The “Percentage of biomass reduction” value [18, 31] was 79.7%, the “Percentage of biomass reduction” value [18, 29] was 11.6% and the “Percentage of biomass reduction” value [18, 30] was 82.7%. For the same molecule, the “Percentage of biomass reduction” value [5, 31] was 90%, the “Percentage of biomass reduction” value [5, 29] was 22.6% and the “Percentage of biomass reduction” value [5, 30] was 87%. For the same molecule, the “Percentage of biomass reduction” value [5, 26] was 31.3%, the MIC [19, 32] was 125 µg/mL (≈ 832 µM) and the MBC ([19]; read-out: MBC) was 250 µg/mL (≈ 1660 µM). It also gave an MIC ([20]; ATCC6538, S. aureus 6538, planktonic, 24 h, read-out: MIC) of 250 µg/mL (≈ 1660 µM), an MBC ([20]; ATCC6538, S. aureus 6538, read-out: MBC) of 250 µg/mL (≈ 1660 µM) and an MIC [21, 32] of 250 µg/mL (≈ 1660 µM). For the same molecule, the MBC ([21]; read-out: MBC) was 250 µg/mL (≈ 1660 µM), the MIC ([22]; E. coli MG1655, planktonic, 24 h, read-out: MIC) was 125 µg/mL (≈ 832 µM) and the MBC ([22]; E. coli MG1655, read-out: MBC) was 250 µg/mL (≈ 1660 µM). For the same molecule, the MIC [23, 27] was no less than 2000 µg/mL, the MFC ([23]; read-out: MFC) was no less than 2000 µg/mL and the “Percentage of biomass reduction” value [11, 28] was 52.1%. The “Percentage of biomass reduction” value [11, 33] was “about 40%”, the “Percentage of biomass reduction” value [11, 30] was 17.5% and the “Percentage of biomass reduction” value [12, 28] was 44.6%. For the same molecule, the “Percentage of biomass reduction” value [12, 33] was “about 40%”, the “Percentage of biomass reduction” value [12, 25] was “about 22%” and the “Percentage of biomass reduction” value [12, 29] was 22.5%. The “Percentage of biomass reduction” value ([24]; biofilm in formation (3 h)) was 37.1%, the “Percentage of biomass reduction” value ([24]; biofilm in formation (3 h), listed as thymol) was “about 40%” and the “Percentage of biomass reduction” value ([24]; preformed biofilm (24 h)) was 11.8%. For the same molecule, the “Percentage of metabolic activity reduction” value [13, 28] was 71.7%, the “Percentage of metabolic activity reduction” value [13, 25] was 25% and the “Percentage of metabolic activity reduction” value [13, 30] was 47%. For the same molecule, the “Percentage of metabolic activity reduction” value [13, 26] was 25.1%, the “Percentage of biomass reduction” value [6, 31] was 70% and the “Percentage of biomass reduction” value [6, 30] was 69.8%. For the same molecule, the “Percentage of biomass reduction” value [7, 31] was 87.7% and the “Percentage of biomass reduction” value [7, 30] was 87%.

Reference: PMC12541891 (MicrobiologyOpen, 2025)
